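In this assay, cells in 96-well plates receive the compound at five concentrations for 48 hours. Endpoints are linearly interpolated between the surrounding concentrations. Definition used: TGI = concentration required for complete inhibition of growth.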

13 compounds from PubChem BioAssay (NCI) can be followed below.

Holding throughout (experiment): DTP human tumour cell line panel, 48 h
Test [1] relates to SK-OV-3 ovarian.
Test [2] relates to UO-31 renal.
In test [3] the test system is OVCAR-5 ovarian.
The test system of test [4] is A549 NSCLC.
Test [5] has as its system UACC-62 melanoma.
Test [6] concerns U251 CNS.
For test [7], the system named is MDA-MB-435.
In test [8] the test system is OVCAR-3 ovarian.
For test [9], the system named is EKVX NSCLC.
For test [10], the system named is 786-0 renal.
In test [11] the test system is NCI/ADR-RES ovarian.

As to `Clc1ccc2c(c1)CC1C[N+]3=C(CCCCC3)C1=C2` (stereo not given), the concentration for total growth inhibition (TGI) in [1], in test [2], in test [3], in [4], in [5] and in test [6] was greater than 100 µM each time. Moreover, the TGI in test [7], in test [8], in [9], in test [10] and in [11] was greater than 100 µM in each case.
With `COc1ccc2nc3c([N+](=O)[O-])ccc4c3c(c2c1)N=CN4CCN(C)C`, the TGI was 28.9 µM in [1]; 11.6 µM in [2]; 23.3 µM in test [3]; 19.2 µM in [4]; 27.4 µM in test [5]; 24.5 µM in [6]. Further, the concentration for total growth inhibition (TGI) was 25.9 µM in test [7]; 17 µM in [8]; 18 µM in test [9]; 21.5 µM in test [10]; 22 µM in test [11].
In the case of `CC1=C(C(=O)NNC(=O)c2ccccc2O)CC(C(=O)NNC(=O)c2ccccc2O)=C(C)N1`, the TGI in [1] was greater than 100 µM; in [2] it was 18.8 µM; in test [3], greater than 100 µM; in test [4] it was greater than 100 µM; in test [5], greater than 100 µM; in test [6], greater than 100 µM. Also, the TGI in [7] is greater than 100 µM; in [8] it was greater than 23.4 µM; in test [9], greater than 72.7 µM; in [10], greater than 61.7 µM; in test [11], greater than 51.3 µM.
Take `O=C(Nc1ccccc1)c1cc2cc(CCl)ccc2oc1=O`: the total growth inhibition concentration (TGI) in [1] is greater than 100 µM; in test [2], greater than 100 µM; in test [3], greater than 100 µM; in test [4] it was greater than 100 µM; in test [5], 32.8 µM; in test [6] it was greater than 100 µM. Besides, the total growth inhibition concentration (TGI) in test [7], in test [8], in [9], in test [10] and in test [11] was greater than 100 µM each time.
As for `O=C(O)c1ccc(Nc2nc3ccc(C(F)(F)F)cc3nc2C(=O)O)cc1`, the TGI in test [1], in test [2], in test [3], in test [4], in test [5] and in [6] was greater than 100 µM in each case. For the same compound, the TGI in [7], in [8], in test [9], in [10] and in [11] was greater than 100 µM in each case.
As to `COC(=O)CCc1cc(OC)c2oc(-c3ccc(OC)c(OC)c3)c(CO)c2c1`, the TGI in test [1], in test [2], in test [3], in [4], in test [5] and in [6] was greater than 100 µM each time. The TGI in test [7], in test [8], in test [9], in test [10] and in test [11] was greater than 100 µM each time.
With `Nc1n[nH]c(N)n1`, the TGI in [1] is greater than 3570 µM; in test [2], greater than 10000 µM; in [3], greater than 9810 µM; in [4], greater than 10000 µM; in test [5], 7470 µM; in [6], greater than 10000 µM. For the same compound, the total growth inhibition concentration (TGI) in [7] is greater than 10000 µM; in test [8] it was greater than 10000 µM; in test [9], greater than 7740 µM; in [10], greater than 10000 µM; in [11], greater than 10000 µM.
As for `COC1=C(OC)C(=O)C(C/C=C/c2c(Cl)nc3sccn23)=C(C)C1=O`, the total growth inhibition concentration (TGI) in test [1] came to 33.8 µM; in test [2], 38.8 µM; in test [3] it was 38 µM; in [4], 33.3 µM; in test [5], 29.1 µM; in [6], 25.6 µM. In addition, the TGI worked out at 23.6 µM in test [7]; 29.9 µM in test [8]; 25.1 µM in test [9]; 49.2 µM in test [10]; 29.6 µM in [11].
As to `Cc1cc(S(=O)(=O)Nc2nnc3c(Cl)cc(C(F)(F)F)cn23)c(S)cc1Cl`, the TGI in test [1], in test [2], in test [3], in test [4], in test [5] and in [6] was greater than 100 µM each time. Also, the TGI in [7], in test [8], in test [9], in [10] and in [11] was greater than 100 µM in each case.
Regarding `CCN(CC)CCC(=O)Nc1ccc2sc3ccccc3c(=O)c2n1`, the TGI was 36.7 µM in test [1]; 22.2 µM in test [2]; 42.5 µM in [3]; 37 µM in test [4]; 35 µM in test [5]; 28.8 µM in test [6]. The TGI in [7] was 26.4 µM; in test [8], 43.2 µM; in test [9], greater than 100 µM; in [10], 35.1 µM; in test [11], 72 µM.
For the compound `C=C1C(=O)O[C@H]2C1C[C@H](O)/C(C)=C/CC[C@@]1(C)O[C@H]21` (stereo not given in full), the total growth inhibition concentration (TGI) in test [1] is greater than 100 µM; in test [2] it was 28.6 µM; in test [3] it was 33.9 µM; in [4], greater than 100 µM; in test [5] it was 22.9 µM; in test [6], greater than 100 µM. Besides, the TGI in [7] was found to be 37.3 µM; in [9] it was 40.3 µM; in [10], 32.8 µM; in [11] it was 33.7 µM.
In the case of `O=C(O)CCC1(CCC(=O)O)CCCCCCCCC(CCC(=O)O)(CCC(=O)O)C(=O)C1=O`, the total growth inhibition concentration (TGI) in [1], in test [3], in test [4], in test [5], in test [6] and in test [7] was greater than 100 µM throughout. The total growth inhibition concentration (TGI) in test [8], in test [9], in test [10] and in test [11] was greater than 100 µM each time.
With `CCOC(=O)CN1C(=O)c2c(NC(=O)C(=O)O)cccc2S1(=O)=O`, the TGI in test [1], in test [2], in test [3], in test [4], in test [5] and in test [6] was greater than 100 µM throughout. Moreover, the TGI in [7], in test [9], in [10] and in [11] was greater than 100 µM in each case.
